What follows are compounds tested against T1, GPX4 (Homo sapiens, UniProt P36969) (assay: GPX4 activity assay in cell lysates (NADPH-coupled)). Details: not given.
T1 sequence (P36969 1-170 isoform P36969-2): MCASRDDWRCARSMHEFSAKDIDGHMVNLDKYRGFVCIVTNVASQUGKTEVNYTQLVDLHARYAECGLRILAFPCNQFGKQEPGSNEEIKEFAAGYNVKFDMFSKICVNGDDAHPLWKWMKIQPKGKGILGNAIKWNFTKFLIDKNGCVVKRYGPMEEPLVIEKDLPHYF
Type: biochemical
Parameters: endogenous in cells; host or cells: A-673 cell lysate
Method: Determination of GPX4 activity in cell lysates was performed as previously described by Roveri et al. 1994 with minor modifications. Briefly, the assay measures the consumption of NADPH, which has a characteristic absorbance at 340 nm, over time as a proxy for GPX4 activity. The rationale for this is that as GPX4 reduces phospholipid hydroperoxides, it oxidizes glutathione, which is then regenerated by glutathione reductase at the expense of NADPH. NADPH is added to the assay in excess such that the reduction of oxidized glutathione is not the rate-limiting reaction in the assay. Thus, the resulting reduction in NADPH absorbance over time reflects GPX4 activity.
The GPX4-specific substrate phosphatidylcholine hydroperoxide (PCOOH) was prepared by enzymatic hydroperoxidation. Specifically, 0.3 mM phosphatidylcholines (Sigma-Aldrich) were incubated with 0.7 mg soybean lipoxidase type IV (Sigma-Aldrich) in 22 mL of 0.2 M Tris-HCl pH 8.8 with 3 mM sodium deoxycholate at room temperature under continuous stirring for 30 minutes. A Sep-Pak C18 cartridge (Waters-Millipore) was pre-washed with methanol and equilibrated with water, then the substrate mixture was loaded. The column was washed with 10 volumes of water and PCOOH was eluted with 2 mL of methanol.
To prepare the cell lysate containing native GPX4, A-673 cells were cultured with 20 nM sodium selenite to confluency over two days then harvested and washed with cold PBS. Cells were then resuspended at 10 million cells per 1 mL LCW lysis buffer (0.5% peroxide-free Triton X-100, 0.5% sodium deoxycholate salt, 150 mM NaCl, 20 mM Tris-HCl pH 7.5, 10 mM EDTA, 30 mM sodium pyrophosphate, and complete protease inhibitor cocktail), vortexed for 30 seconds, and incubated on ice for 15 minutes. After lysis, the lysates were centrifuged at 14,000×g and 4° C. for 15 minutes. The supernatants were transferred to new pre-chilled tube and the debris pellet was discarded. The protein concentration in the lysate was determined for normalization using the BCA Protein Assay Kit (Pierce).
To measure GPX4 activity, 50 μL of cell lysate was combined with 200 μL activity assay buffer (0.1% Triton X-100, 100 mM Tris-HCl pH 8.0, 10 mM sodium azide, 5 mM EDTA, 0.6 IU/mL glutathione reductase, 0.5 mM NADPH and 3 mM GSH) and compounds of interest in a clear 96-well plate and incubated at 37° C. for 45 minutes. Compounds were dissolved in DMSO. All conditions were tested in triplicate. PCOOH substrate was added to the mixture to initiate GPX4 activity just before reading the plate. The absorbance of NADPH at 340 nm was monitored kinetically over time for 25 minutes. Buffer-only controls and controls without substrate containing only the methanol vehicle were performed to assess background and baseline signal. GPX4 activity was calculated as previously reported by Stolwijk et al. 2020 and results were analyzed in GraphPad Prism 9.

Row | Structure (SMILES) | GPX4 inhibitory activity, result in words
1 | C=CC(=O)OCC(C)(C)NC(=O)c1nn(C)c2cc(Br)ccc12 [QW-417] | inactive during GPX4 inhibition
2 | Cn1nc(C(=O)NC(C)(C)COC(=O)CCl)c2ccc(-c3ccc(C#N)cc3)cc21 [QW-445] | inactive during GPX4 inhibition
3 | COc1cccc(OC)c1-c1ccc2c(C(=O)NC(C)(C)COC(=O)CCl)nn(C)c2c1 [QW-487] | completely loss of the inhibitory effect
4 | Cn1nc(C(=O)NC(C)(C)COC(=O)CCl)c2ccc(-c3ccc(C(F)(F)F)cc3)cc21 [QW-502] | inactive during GPX4 inhibition
5 | COc1cc(-c2ccc3c(C(=O)NC(C)(C)COC(=O)CCl)nn(C)c3c2)ccc1Cl [QW-556] | reduced the inhibitory activity

Same assay, conditions: 5 μM

Row | Structure (SMILES) | GPX4% inhibition at 5 μM
6 | Cn1nc(C(=O)NC(C)(C)COC(=O)CCl)c2ccc(-c3ccc(F)nc3)cc21 [QW-444] | 34.1 ± 0.3%
7 | Cn1nc(C(=O)NC(C)(C)COC(=O)CCl)c2ccc(-c3ccc(C#N)cc3)cc21 [QW-445] | 21.2 ± 5.7%
8 | Cn1nc(C(=O)NC(C)(C)COC(=O)CCl)c2ccc(-c3ccoc3)cc21 [QW-451] | 37.7 ± 4.1%
9 | Cn1nc(C(=O)NC(C)(C)COC(=O)CCl)c2ccc(-c3cccc([N+](=O)[O-])c3)cc21 [QW-452] | 55.0 ± 5.8%
10 | Cn1nc(C(=O)NC(C)(C)COC(=O)CCl)c2ccc(-c3cc4ccccc4[nH]3)cc21 [QW-453] | 67.0 ± 4.7%
11 | Cn1nc(C(=O)NC(C)(C)COC(=O)CCl)c2ccc(-c3ccc4c(c3)OCCO4)cc21 [QW-457] | 54.4 ± 7.2%
12 | Cn1nc(C(=O)NC(C)(C)COC(=O)CCl)c2ccc(-c3cccc4[nH]ccc34)cc21 [QW-467] | −10.3 ± 4.3%
13 | Cn1nc(C(=O)NC(C)(C)COC(=O)CCl)c2ccc(-c3ccc(OC(F)(F)F)cc3)cc21 [QW-469] | 64.3 ± 0.7%
14 | COc1cc(-c2ccc3c(C(=O)NC(C)(C)COC(=O)CCl)nn(C)c3c2)cc(OC)c1OC [QW-479] | 59.6 ± 6.8%
15 | COc1ccccc1-c1ccc2c(C(=O)NC(C)(C)COC(=O)CCl)nn(C)c2c1 [QW-483] | 35.8 ± 7.4%
16 | COc1cccc(OC)c1-c1ccc2c(C(=O)NC(C)(C)COC(=O)CCl)nn(C)c2c1 [QW-487] | 3.3 ± 3.0%
17 | Cn1nc(C(=O)NC(C)(C)COC(=O)CCl)c2ccc(-c3ccccc3Cl)cc21 [QW-492] | 45.7 ± 4.9%
18 | Cn1nc(C(=O)NC(C)(C)COC(=O)CCl)c2ccc(-c3cccc(F)c3)cc21 [QW-493] | 77.1 ± 10.4%
19 | Cn1nc(C(=O)NC(C)(C)COC(=O)CCl)c2ccc(-c3ccc(Cl)cc3)cc21 [QW-494] | 76.8 ± 2.3%
20 | CC(C)Oc1ccc(Cl)cc1-c1ccc2c(C(=O)NC(C)(C)COC(=O)CCl)nn(C)c2c1 [QW-495] | 22.9 ± 7.5%
21 | Cn1nc(C(=O)NC(C)(C)COC(=O)CCl)c2ccc(-c3ccc(F)c(F)c3)cc21 [QW-500] | 57.5 ± 5.3%

Row | Structure (SMILES) | GPX4% inhibition at 5 μM
22 | Cn1nc(C(=O)NC(C)(C)COC(=O)CCl)c2ccc(-c3ccc(C(F)(F)F)cc3)cc21 [QW-502] | −10.2 ± 6.5%
23 | Cn1nc(C(=O)NC(C)(C)COC(=O)CCl)c2ccc(-c3ccc(OCc4ccccc4)cc3)cc21 [QW-503] | 65.3 ± 3.2%
24 | CC(C)Oc1ccccc1-c1ccc2c(C(=O)NC(C)(C)COC(=O)CCl)nn(C)c2c1 [QW-509] | 28.3 ± 3.0%
25 | Cn1nc(C(=O)NC(C)(C)COC(=O)CCl)c2ccc(-c3cccc(OC(=O)CCl)c3)cc21 [QW-510] | 67.2 ± 1.9%
26 | Cn1nc(C(=O)NC(C)(C)COC(=O)CCl)c2ccc(-c3ccc(COC(=O)CCl)cc3)cc21 [QW-513] | 50.1 ± 2.4%
27 | Cn1nc(C(=O)NC(C)(C)COC(=O)CCl)c2ccc(C3=CCc4ccccc43)cc21 [QW-514] | 44.8 ± 6.6%
28 | Cn1nc(C(=O)NC(C)(C)COC(=O)CCl)c2ccc(-c3coc4ccccc34)cc21 [QW-535] | 62.2 ± 5.1%
29 | CCOc1ncc(-c2ccc3c(C(=O)NC(C)(C)COC(=O)CCl)nn(C)c3c2)cn1 [QW-536] | 46.6 ± 2.3%
30 | Cn1nc(C(=O)NC(C)(C)COC(=O)CCl)c2ccc(-c3ccc(N4CCOCC4)nc3)cc21 [QW-537] | 46.1 ± 2.7%
31 | Cn1nc(C(=O)NC(C)(C)COC(=O)CCl)c2ccc(-c3ccc(CN4CCOCC4)cc3)cc21 [QW-539] | 49.6 ± 4.5%
32 | Cn1nc(C(=O)NC(C)(C)COC(=O)CCl)c2ccc(-c3cnc4ccccc4c3)cc21 [QW-542] | 75.6 ± 4.5%
33 | Cn1nc(C(=O)NC(C)(C)COC(=O)CCl)c2ccc(-c3ccc(N4CCOCC4)cc3)cc21 [QW-547] | 72.0 ± 0.4%
34 | C=Cc1ccc(-c2ccc3c(C(=O)NC(C)(C)COC(=O)CCl)nn(C)c3c2)cc1 [QW-554] | 41.4 ± 4.5%
35 | C#Cc1ccc(-c2ccc3c(C(=O)NC(C)(C)COC(=O)CCl)nn(C)c3c2)cc1 [QW-555] | 20.2 ± 0.5%
36 | COc1cc(-c2ccc3c(C(=O)NC(C)(C)COC(=O)CCl)nn(C)c3c2)ccc1Cl [QW-556] | 80.2 ± 1.8%
37 | CSc1ccc(-c2ccc3c(C(=O)NC(C)(C)COC(=O)CCl)nn(C)c3c2)cc1Cl [QW-558] | 91.2 ± 2.3%

Same assay, conditions: 5 μM; generation 2

Row | Structure (SMILES) | GPX4% inhibition at 5 μM
38 | Cn1nc(C(=O)NC(C)(C)COC(=O)CCl)c2ccc([N+](=O)[O-])cc21 [QW-380] | 62.1 ± 2.4%
39 | Cn1nc(C(=O)NC(C)(C)CC(O)S(=O)(=O)[O-])c2ccccc21.[Na+] (stereo not drawn) [QW-394] | 4.5 ± 17.8%
40 | COc1cccc2c(C(=O)NC(C)(C)COC(=O)CCl)nn(C)c12 [QW-398] | 20.3 ± 9.5%
41 | CC(C)(COC(=O)CCl)NC(=O)c1nc2cc(Br)ccc2[nH]1 [QW-407] | −14.3 ± 5.2%
42 | CC=CC(=O)OCC(C)(C)NC(=O)c1nn(C)c2ccccc12 [QW-411] | −6.0 ± 3.1%
43 | COC(=O)C=CC(=O)OCC(C)(C)NC(=O)c1nn(C)c2ccccc12 [QW-412] | −5.7 ± 8.0%
44 | CC=CC(=O)OCC(C)(C)NC(=O)c1nn(C)c2cc(Br)ccc12 [QW-414] | −9.1 ± 13.4%
45 | COC(=O)C=CC(=O)OCC(C)(C)NC(=O)c1nn(C)c2cc(Br)ccc12 [QW-415] | −9.4 ± 8.1%
46 | Cn1nc(C(=O)NC(C)(C)COC(=O)CBr)c2ccc(Br)cc21 [QW-416] | 25.3 ± 13.4%
47 | C=CC(=O)OCC(C)(C)NC(=O)c1nn(C)c2cc(Br)ccc12 [QW-417] | −5.2 ± 10.0%
48 | Cn1nc(C(=O)NC(C)(C)COC(=O)C#C[Si](C)(C)C)c2ccc(Br)cc21 [QW-418] | −5.6 ± 5.1%
49 | C#CC(=O)OCC(C)(C)NC(=O)c1nn(C)c2cc(Br)ccc12 [QW-420] | −10.9 ± 8.0%
50 | Cn1nc(C(=O)NC(C)(C)COC(=O)CCl)c2cccnc21 [QW-426] | −11.3 ± 4.7%
51 | Cc1cc(C(=O)OCC(C)(C)NC(=O)c2nn(C)c3cc(Br)ccc23)no1 [QW-429] | −2.3 ± 2.3%
52 | Cn1nc(C(=O)NCCCCCC=O)c2ccc(Br)cc21 [QW-497] | −15.1 ± 8.4%
53 | Cn1nc(C(=O)NCCCCCC(O)S(=O)(=O)[O-])c2ccc(Br)cc21.[Na+] (stereo not drawn) [QW-517] | −10.7 ± 7.8%
54 | Cn1nc(C(=O)NCCCCCCOC(=O)CCl)c2ccc(Br)cc21 [QW-520] | −9.8 ± 6.7%
55 | Cn1nc(C(=O)NCCCCCOC(=O)CCl)c2ccc(Br)cc21 [QW-521] | −19.3 ± 9.9%
56 | Cn1nc(C(=O)NCCCCC=O)c2ccc(Br)cc21 [QW-527] | −24.5 ± 0.5%
57 | Cn1nc(C(=O)NCCCCC(O)S(=O)(=O)[O-])c2ccc(Br)cc21.[Na+] (stereo not drawn) [QW-534] | −36.6 ± 4.8%

Same assay, conditions: 20 μM; generation 2

Row | Structure (SMILES) | GPX4% inhibition at 20 (μM)
58 | Cn1nc(C(=O)NC(C)(C)C=O)c2ccccc21 [QW-387] | 4.1 ± 4.7%
59 | Cn1nc(C(=O)NC(C)(C)CC=O)c2ccccc21 [QW-388] | 1.6 ± 1.9%
60 | Cn1nc(C(=O)NC(C)(C)C(O)S(=O)(=O)[O-])c2ccccc21.[Na+] (stereo not drawn) [QW-389] | 32.2 ± 2.5%
61 | CC(C)(COC(=O)CCl)NC(=O)c1n[nH]c2ncccc12 [QW-390] | 4.0 ± 3.9%
62 | CC(C)(COC(=O)CCl)NC(=O)c1ncn2ccccc12 [QW-391] | 5.3 ± 8.5%

Same assay, conditions: concentration not given

Row | Structure (SMILES) | GPX4 inhibition rate
63 | Cn1nc(C(=O)NC(C)(C)COC(=O)CCl)c2ccc(-c3cccc([N+](=O)[O-])c3)cc21 [QW-452] | 50%
